Assay results reported in patent US12157730B2, “Heteroaryl derivative, method for producing same, and pharmaceutical composition comprising same as effective component” (VORONOI INC., priority 2019, dated 2024).

Target: T1, Ba/F3 cell EGFR Exon20 ins NPH (Homo sapiens, UniProt P00533, INS773NPH)
T1 construct: expressed in transfected cells; host or cells: Ba/F3
Test: Ba/F3 cell proliferation suppression, EGFR Exon20 ins NPH
Format: cell-based
Conditions: GI50 class; Ba/F3 cell line with NPH inserted at Exon20 of EGFR; 72 hours
Outline: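 Cells (3000–5000/well) plated 24 h before compound, 12-point 3-fold dilutions at 0.3 nM to 50 um final; Ba/F3 lines grown with 5 ng/ml IL-3. Viability by CellTiter-Glo luminescence after 72 h, growth ratio vs control, GI50 from curves; triplicate.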

| Compound | Ba/F3 (NPH) Activity |
| --- | --- |
| C=CC(=O)Nc1cc(Nc2cc(N3OCC[C@@H]3c3ccc(F)c(Cl)c3)ncn2)c(OC)cc1N1CCC(N2CCC(N(C)C)CC2)CC1 [compound 768, N-(5-((6-((R)-3-(3-chloro-4-fluorophenyl)isoxazolidine-2-yl)pyrimidine-4-yl)amino)-2-(4-(dimethylamino)-[1,4'-bipiperidine]-1'-yl)-4-methoxyphenyl) acrylamide] | A (GI50 < 50 nM) |
| C=CC(=O)Nc1cc(Nc2cc(N3OCC[C@@H]3c3ccc(F)cc3)ncn2)c(OC)cc1N1CCC(N2C[C@H]3C[C@@H]2CO3)CC1 [compound 813, N-(2-(4-((1R,4R)-2-oxa-5-azabicyclo [2.2.1]heptane-5-yl)piperidine-1-yl)-5-((6-((R)-3-(4-fluorophenyl)isoxazolidine-2-yl)pyrimidine-4-yl)amino)-4-methoxyphenyl) acrylamide] | A (GI50 < 50 nM) |
| C=CC(=O)Nc1cc(Nc2cc(N3OCC[C@@H]3Cc3ccccc3)ncn2)c(OC)cc1N1CCN(C2CCOCC2)CC1 [compound 971, N-(5-((6-((S)-3-benzylisoxazolidine-2-yl)pyrimidine-4-yl)amino)-4-methoxy-2-(4-(tetrahydro-2H-pyran-4-yl)piperazine-1-yl)phenyl) acrylamide] | A (GI50 < 50 nM) |
| C=CC(=O)Nc1cc(Nc2cc(N3OCC[C@@H]3c3ccc(Cl)c(Cl)c3F)ncn2)c(OC)cc1N1CCC(N2CCN(C(C)=O)CC2)CC1 [compound 774, N-(2-(4-(4-acetylpiperazine-1-yl)piperidine-1-yl)-5-((6-((R)-3-(3,4-dichloro-2-fluorophenyl)isoxazolidine-2-yl)pyrimidine-4-yl)amino)-4-methoxyphenyl) acrylamide] | B (50 nM ≤ GI50 < 500 nM) |
| C=CC(=O)Nc1cc(Nc2cc(N3OCC[C@@H]3c3cc(F)ccc3F)ncn2)c(OC)cc1N1CC[C@H](N2CCOCC2)C1 [compound 302, N-(5-((6-((R)-3-(2,5-difluorophenyl)isoxazolidine-2-yl)pyrimidine-4-yl)amino)-4-methoxy-2-((S)-3-morpholinopyrolidine-1-yl)phenyl)acrylamide] | B (50 nM ≤ GI50 < 500 nM) |
| C=CC(=O)Nc1cc(Nc2cc(N3OCC[C@@H]3c3ccc(F)cc3F)ncn2)c(OC)cc1N1CCC(N2C[C@@H]3C[C@H]2CO3)CC1 [compound 381, N-(2-(4-((1S,4S)-2-oxa-5-azabicyclo[2.2.1]heptane-5-yl)piperidine-1-yl)-5-((6-((R)-3-(2,4-difluorophenyl)isoxazolidine-2-yl)pyrimidine-4-yl)amino)-4-methoxyphenyl) acrylamide] | A (GI50 < 50 nM) |
| C=CC(=O)Nc1cc(Nc2cc(N3OCC[C@@H]3c3ccc(F)c(Cl)c3)ncn2)c(OC)cc1N1CCC(N2CCN(CC3CC3)CC2)CC1 [Example 94, N-(5-((6-((R)-3-(3-chloro-4-fluorophenyl)isoxazolidine-2-yl)pyrimidine-4-yl)amino)-2-(4-(4-(cyclopropylmethyl)piperazine-1-yl)piperidine-1-yl)-4-methoxyphenyl) acrylamide] | A (GI50 < 50 nM) |
| C=CC(=O)Nc1cc(Nc2cc(N3OCC[C@@H]3c3ccc(F)c(F)c3F)ncn2)c(OC)cc1N1CCC(N2CCC(N(C)C)CC2)CC1 [compound 656, N-(2-(4-(dimethylamino)-[1,4'-bipiperidine]-1'-yl)-4-methoxy-5-((6-((R)-3-(2,3,4-trifluorophenyl)isoxazolidine-2-yl)pyrimidine-4-yl)amino)phenyl)acrylamide] | B (50 nM ≤ GI50 < 500 nM) |
| C=CC(=O)Nc1cc(Nc2cc(N3OCC[C@@H]3c3cccc(Cl)c3Cl)ncn2)c(OC)cc1N1CCC(N2CCN(CC3CC3)CC2)CC1 [Example 204, N-(2-(4-(4-(cyclopropylmethyl)piperazine-1-yl)piperidine-1-yl)-5-((6-((R)-3-(2,3-dichlorophenyl)isoxazolidine-2-yl)pyrimidine-4-yl)amino)-4-methoxyphenyl) acrylamide] | A (GI50 < 50 nM) |
| C=CC(=O)Nc1cc(Nc2cc(N3OCC[C@@H]3c3cc(F)cc(F)c3)ncn2)c(OC)cc1N1CCC(N2CCN3CCCC3C2)CC1 (stereo partly drawn) [compound 852, N-(5-((6-((R)-3-(3,5-difluorophenyl)isoxazolidine-2-yl)pyrimidine-4-yl)amino)-2-(4-(hexahydropyrrolo [1,2-a]pyrazine-2(1H)-yl)piperidine-1-yl)-4-methoxyphenyl) acrylamide] | A (GI50 < 50 nM) |
| C=CC(=O)Nc1cc(Nc2cc(N3OCC[C@@H]3c3c(F)ccc(F)c3F)ncn2)c(OC)cc1N1CCN(C)CC1 [compound 629, N-(4-methoxy-2-(4-methylpiperazine-1-yl)-5-((6-((R)-3-(2,3,6-trifluorophenyl)isoxazolidine-2-yl)pyrimidine-4-yl)amino)phenyl)acrylamide] | B (50 nM ≤ GI50 < 500 nM) |
| C=CC(=O)Nc1cc(Nc2cc(N3OCC[C@@H]3c3ccc(F)cc3F)ncn2)c(OC)cc1N1CCC(N2CCN(C3CCOCC3)CC2)CC1 [Example 207, N-(5-((6-((R)-3-(2,4-difluorophenyl)isoxazolidine-2-yl)pyrimidine-4-yl)amino)-4-methoxy-2-(4-(4-(tetrahydro-2H-pyran-4-yl)piperazine-1-yl)piperidine-1-yl)phenyl)acrylamide] | A (GI50 < 50 nM) |
| C=CC(=O)Nc1cc(Nc2cc(N3OCC[C@@H]3c3cccc(Cl)c3Cl)ncn2)c(OC)cc1N1CCN(C2COC2)CC1 [compound 520, N-(5-((6-((R)-3-(2,3-dichlorophenyl)isoxazolidine-2-yl)pyrimidine-4-yl)amino)-4-methoxy-2-(4-(oxetane-3-yl)piperazine-1-yl)phenyl) acrylamide] | A (GI50 < 50 nM) |
| C=CC(=O)Nc1cc(Nc2cc(N3OCC[C@@H]3c3cc(F)cc(F)c3)ncn2)c(OC)cc1N1CCC(N2CCN(C3CC3)C[C@@H]2C)CC1 [Example 111, N-(2-(4-((S)-4-cyclopropyl-2-methylpiperazine-1-yl)piperidine-1-yl)-5-((6-((R)-3-(3,5-difluorophenyl)isoxazolidine-2-yl)pyrimidine-4-yl)amino)-4-methoxyphenyl) acrylamide] | A (GI50 < 50 nM) |
| C=CC(=O)Nc1cc(Nc2cc(N3OCC[C@@H]3c3cc(F)ccc3F)ncn2)c(OC)cc1N1CCC(N2C[C@@H](C)O[C@@H](C)C2)CC1 [compound 714, N-(5-((6-((R)-3-(2,5-difluorophenyl)isoxazolidine-2-yl)pyrimidine-4-yl)amino)-2-(4-((2S,6R)-2,6-dimethylmorpholino)piperidine-1-yl)-4-methoxyphenyl) acrylamide] | A (GI50 < 50 nM) |
| C=CC(=O)Nc1cc(Nc2cc(N3OCC[C@@H]3Cc3ccccc3)ncn2)c(OC)cc1N1CCC(N2CCOCC2)CC1 [compound 965, N-(5-((6-((S)-3-benzylisoxazolidine-2-yl)pyrimidine-4-yl)amino)-4-methoxy-2-(4-morpholinopiperidine-1-yl)phenyl)acrylamide] | A (GI50 < 50 nM) |
| C=CC(=O)Nc1cc(Nc2cc(N3OCC[C@@H]3Cc3cc(F)cc(F)c3)ncn2)c(OC)cc1N1CCC(N2C[C@H]3C[C@@H]2CO3)CC1 [compound 1034, N-(2-(4-((1R,4R)-2-oxa-5-azabicyclo [2.2.1]heptane-5-yl)piperidine-1-yl)-5-((6-((S)-3-(3,5-difluorobenzyl)isoxazolidine-2-yl)pyrimidine-4-yl)amino)-4-methoxyphenyl) acrylamide] | A (GI50 < 50 nM) |
| C=CCN1CCN(C2CCN(c3cc(OC)c(Nc4cc(N5OCC[C@@H]5Cc5cccc(Cl)c5Cl)ncn4)cc3NC(=O)C=C)CC2)CC1 [compound 1024, N-(2-(4-(4-allylpiperazine-1-yl)piperidine-1-yl)-5-((6-((S)-3-(2,3-dichlorobenzyl)isoxazolidine-2-yl)pyrimidine-4-yl)amino)-4-methoxyphenyl) acrylamide] | A (GI50 < 50 nM) |
| C=CC(=O)Nc1cc(Nc2cc(N3OCC[C@@H]3c3ccc(Cl)c(Cl)c3)ncn2)c(OC)cc1N1CCN(CC2CC2)CC1 [compound 687, N-(2-(4-(cyclopropylmethyl)piperazine-1-yl)-5-((6-((R)-3-(3,4-dichlorophenyl)isoxazolidine-2-yl)pyrimidine-4-yl)amino)-4-methoxyphenyl) acrylamide] | A (GI50 < 50 nM) |
| C=CC(=O)Nc1cc(Nc2cc(N3OCC[C@@H]3c3cccc(OC)c3)ncn2)c(OC)cc1N1CCC(N2CCN(C(C)=O)CC2)CC1 [compound 779, N-(2-(4-(4-acetylpiperazine-1-yl)piperidine-1-yl)-4-methoxy-5-((6-((R)-3-(3-methoxyphenyl)isoxazolidine-2-yl)pyrimidine-4-yl)amino)phenyl)acrylamide] | A (GI50 < 50 nM) |
| C=CC(=O)Nc1cc(Nc2cc(N3OCC[C@@H]3c3ccc(Cl)c(Cl)c3)ncn2)c(OC)cc1N1CCN(C(C)C)CC1 [compound 680, N-(5-((6-((R)-3-(3,4-dichlorophenyl)isoxazolidine-2-yl)pyrimidine-4-yl)amino)-2-(4-isopropylpiperazine-1-yl)-4-methoxyphenyl) acrylamide] | A (GI50 < 50 nM) |
| C=CCN1CCN(C2CCN(c3cc(OC)c(Nc4cc(N5OCC[C@@H]5c5cc(F)ccc5F)ncn4)cc3NC(=O)C=C)CC2)CC1 [Example 88, N-(2-(4-(4-allylpiperazine-1-yl)piperidine-1-yl)-5-((6-((R)-3-(2,5-difluorophenyl)isoxazolidine-2-yl)pyrimidine-4-yl)amino)-4-methoxyphenyl) acrylamide] | A (GI50 < 50 nM) |
| C=CC(=O)Nc1cc(Nc2cc(N3OCC[C@@H]3c3cccc(OC)c3)ncn2)c(OC)cc1N1CCC(N2C[C@@H](C)O[C@@H](C)C2)CC1 [compound 727, N-(2-(4-((2S,6R)-2,6-dimethylmorpholino)piperidine-1-yl)-4-methoxy-5-((6-((R)-3-(3-methoxyphenyl)isoxazolidine-2-yl)pyrimidine-4-yl)amino)phenyl)acrylamide] | A (GI50 < 50 nM) |
